Test results reported in patent publication US8952024B2, “Herbicidal pyrimidone derivatives” (E I du Pont de Nemours and Company, priority 2009, dated 2015).

What was measured:
Test in all cases: Test A pre-/postemergence plant response
Type in all cases: in vivo
corn (Zea mays) = system: corn (Zea mays)
Excerpt: (§1) Seeds of barnyardgrass (Echinochloa crus-galli), large crabgrass (Digitaria sanguinalis), giant foxtail (Setaria faberii), morningglory (Ipomoea spp.), pigweed (Amaranthus retroflexus), velvetleaf (Abutilon theophrasti), wheat (Triticum aestivum) and corn (Zea mays) were planted into a blend of loam soil and sand and treated preemergence with a directed soil spray using test chemicals formulated in a non-phytotoxic solvent mixture which included a surfactant. At the same time these species were also treated with postemergence applications of test compounds formulated in the same manner.
(§2) Plants ranged in height from two to ten cm and were in the one- to two-leaf stage for the postemergence treatment. Treated plants and untreated controls were maintained in a greenhouse for approximately ten days, after which time all treated plants were compared to untreated controls and visually evaluated for injury. Plant response ratings, summarized in Table A, are based on a 0 to 100 scale where 0 is no effect and 100 is complete control. A dash (-) response means no test result.

[1] = system: pigweed (Amaranthus retroflexus)
Excerpt: as §1, §2

[2] = system: wheat (Triticum aestivum); settings: for Wheat plant response rating: visual injury, 0 to 100 scale (0 no effect, 100 complete control)
Excerpt: as §1, §2

[3] = system: giant foxtail (Setaria faberii)
Excerpt: as §1, §2

[4] = system: barnyardgrass (Echinochloa crus-galli)
Excerpt: as §1, §2

[5] = system: large crabgrass (Digitaria sanguinalis)
Excerpt: as §1, §2

[6] = system: velvetleaf (Abutilon theophrasti); settings: for Velvetleaf plant response rating: visual injury, 0 to 100 scale (0 no effect, 100 complete control)
Excerpt: as §1, §2

[7] = system: morningglory (Ipomoea spp.)
Excerpt: as §1, §2

[8] = Postemergence, 125 g ai/ha, 0 to 100 scale where 0 is no effect and 100 is complete control
[9] = Postemergence, 500 g ai/ha, visual injury, 0 to 100 scale (0 no effect, 100 complete control), approx. ten days
[10] = Preemergence, 125 g ai/ha, 0 to 100 scale, 0 = no effect, 100 = complete control
[11] = Preemergence, 500 g ai/ha, 0 to 100 scale, 0 = no effect, 100 = complete control
[12] = Postemergence, 500 g ai/ha, approx. ten days
[13] = Postemergence, 500 g ai/ha, 0 to 100 scale, 0 = no effect, 100 = complete control, approx. ten days
[14] = Preemergence, 500 g ai/ha, visual injury, 0 to 100 scale (0 no effect, 100 complete control), approx. ten days

| Compound | Plant response rating, Corn (corn (Zea mays); [8]) | Corn plant response rating (corn (Zea mays); [9]) | Plant response rating, Corn (corn (Zea mays); [10]) | Plant response rating, Corn (corn (Zea mays); [11]) | Plant response rating, Pigweed [1, 8] | Plant response rating, Pigweed [1, 10] | Plant response rating, Wheat [2, 8] | Plant response rating, Wheat [2, 10] | Plant response rating, Wheat [2, 11] | Plant response rating, Foxtail, Giant [3, 8] | Plant response rating, Foxtail, Giant [3, 10] | Plant response rating, Barnyardgrass [4, 8] | Plant response rating, Barnyardgrass [4, 10] | Plant response rating, Crabgrass, Large [5, 8] | Plant response rating, Crabgrass, Large [5, 10] | Plant response rating, Velvetleaf [6, 8] | Plant response rating, Velvetleaf [6, 10] | Plant response rating, Velvetleaf [6, 11] | Plant response rating, Morningglory [7, 8] | Plant response rating, Morningglory [7, 10] | further results |
| --- | --- | --- | --- | --- | --- | --- | --- | --- | --- | --- | --- | --- | --- | --- | --- | --- | --- | --- | --- | --- | --- |
| Cc1ccc(-n2c(-c3cccc(F)c3)ncc(C(=O)C3=C(O)CCCC3=O)c2=O)cc1 [Compound 202] | 10 | 30 | 20 | 40 | 100 | 90 | 20 | 0 | 40 | 80 | 50 | 90 | 20 | 70 | 50 | 100 | 70 | 100 | 100 | 0 | Pigweed plant response rating [1, 9]: 100; Plant response rating, Pigweed [1, 11]: 100; Wheat plant response rating [2, 12]: 50; Foxtail, Giant plant response rating [3, 9]: 100; Plant response rating, Foxtail, Giant [3, 11]: 100; Barnyardgrass plant response rating [4, 9]: 100; Plant response rating, Barnyardgrass [4, 11]: 100; Crabgrass, Large plant response rating [5, 9]: 100; Plant response rating, Crabgrass, Large [5, 11]: 100; Velvetleaf plant response rating [6, 12]: 100; Morningglory plant response rating [7, 9]: 100; Plant response rating, Morningglory [7, 11]: 100 |
| CCCn1c(-c2ccc3c(c2)OCCO3)ncc(C(=O)C2=C(O)CCCC2=O)c1=O [Compound 149] | 0 |  | 0 |  | 70 | 80 | 20 | 0 | 20 | 60 | 10 | 70 | 20 | 40 | 30 | 100 | 40 | 70 | 100 | 0 | Plant response rating, Corn (corn (Zea mays); [13]): 30; Plant response rating, Corn (corn (Zea mays); [14]): 20; Plant response rating, Pigweed [1, 13]: 100; Plant response rating, Pigweed [1, 14]: 100; Plant response rating, Wheat [2, 13]: 50; Plant response rating, Foxtail, Giant [3, 13]: 80; Plant response rating, Foxtail, Giant [3, 14]: 60; Plant response rating, Barnyardgrass [4, 13]: 90; Plant response rating, Barnyardgrass [4, 14]: 50; Plant response rating, Crabgrass, Large [5, 13]: 70; Plant response rating, Crabgrass, Large [5, 14]: 80; Plant response rating, Velvetleaf [6, 13]: 100; Plant response rating, Morningglory [7, 13]: 100; Plant response rating, Morningglory [7, 14]: 40 |
| CCCn1c(-c2ccc3ccccc3c2)ncc(C(=O)C2=C(O)CCCC2=O)c1=O [Compound 150] | 0 |  | 0 |  | 30 | 0 | 0 | 0 | 0 | 40 | 0 | 40 | 0 | 20 | 0 | 50 | 0 | 0 | 100 | 0 | Plant response rating, Corn (corn (Zea mays); [13]): 0; Plant response rating, Corn (corn (Zea mays); [14]): 0; Plant response rating, Pigweed [1, 13]: 60; Plant response rating, Pigweed [1, 14]: 0; Plant response rating, Wheat [2, 13]: 20; Plant response rating, Foxtail, Giant [3, 13]: 70; Plant response rating, Foxtail, Giant [3, 14]: 0; Plant response rating, Barnyardgrass [4, 13]: 80; Plant response rating, Barnyardgrass [4, 14]: 0; Plant response rating, Crabgrass, Large [5, 13]: 50; Plant response rating, Crabgrass, Large [5, 14]: 10; Plant response rating, Velvetleaf [6, 13]: 90; Plant response rating, Morningglory [7, 13]: 100; Plant response rating, Morningglory [7, 14]: 0 |
| O=C1CCCC(O)=C1C(=O)c1cnc(-c2ccccc2)n(C2CCCCCCCCCCC2)c1=O [Compound 165] | 0 | 30 | 0 | 0 | 80 | 0 | 0 | 0 | 0 | 20 | 0 | 0 | 0 | 20 | 0 | 100 | 0 | 0 | 50 |  | Pigweed plant response rating [1, 9]: 100; Plant response rating, Pigweed [1, 11]: 0; Wheat plant response rating [2, 12]: 0; Foxtail, Giant plant response rating [3, 9]: 30; Plant response rating, Foxtail, Giant [3, 11]: 0; Barnyardgrass plant response rating [4, 9]: 80; Plant response rating, Barnyardgrass [4, 11]: 0; Crabgrass, Large plant response rating [5, 9]: 50; Plant response rating, Crabgrass, Large [5, 11]: 0; Velvetleaf plant response rating [6, 12]: 100; Morningglory plant response rating [7, 9]: 100; Plant response rating, Morningglory [7, 11]: 0 |
| O=C1CCCC(O)=C1C(=O)c1cnc(-c2cc(F)c(F)c(F)c2)n(C2CCCCC2)c1=O [Compound 205] | 0 | 20 | 0 | 0 | 90 | 10 | 0 | 0 | 0 | 40 | 10 | 90 | 0 | 60 | 20 | 100 | 10 | 80 | 100 | 0 | Pigweed plant response rating [1, 9]: 100; Plant response rating, Pigweed [1, 11]: 90; Wheat plant response rating [2, 12]: 10; Foxtail, Giant plant response rating [3, 9]: 90; Plant response rating, Foxtail, Giant [3, 11]: 80; Barnyardgrass plant response rating [4, 9]: 100; Plant response rating, Barnyardgrass [4, 11]: 10; Crabgrass, Large plant response rating [5, 9]: 90; Plant response rating, Crabgrass, Large [5, 11]: 90; Velvetleaf plant response rating [6, 12]: 100; Morningglory plant response rating [7, 9]: 100; Plant response rating, Morningglory [7, 11]: 60 |
